Measured values taken from the NIST ThermoML archive (doi:10.1016/j.fluid.2008.02.016).
Numbers after ± are expanded uncertainties.

Legend:
[1] = Crystal; DTA
[2] = Molar enthalpy of transition or fusion; details: Crystal; DSC

| Normal melting temperature [1] [°C] | Molar enthalpy of transition or fusion [2] [kcal/mol] | Compound |
| --- | --- | --- |
| 84.10 ± 0.5 | 5.33 ± 0.167 | Cc1ccc(C(c2ccc(C)cc2)(C(F)(F)F)C(F)(F)F)cc1 [2,2-bis(p-tolyl)hexafluoropropane] |
| 78.60 ± 0.5 | 5.07 ± 0.143 | Cc1ccc(C(C)(C)c2ccc(C)cc2)cc1 [2,2-bis(p-tolyl)propane] |
